In publication PMC8397425, “A Strategy to Conjugate Bioactive Fragments to Cytotoxic Diiron Bis(cyclopentadienyl) Complexes” (Organometallics, 2021):

How the values were obtained:
[1] = system: natural double-stranded DNA from calf thymus; assay: Ethidium bromide (EB) exchange test with DNA; assay type: binding; details: NaCl 0.1 M, NaCac 0.01 M, T = 25 °C; complex 1.4–135 μM
Protocol: The ability of [4]CF3SO3 and [9]CF3SO3 to interact with natural DNA was studied using the ethidium bromide (EB) exchange test (Figure 6), with the concentration of the complexes beingin the 1.5–124 μM range for [4]CF3SO3 and 1.4–135 μM for [9]CF3SO3. Blank experiments were carried out with the two bioactive molecules and also with DMSO to check for solvent/dilution effects. […] However, EB exchange titrations are suitable to recognize fast noncovalent binding events, but not subsequent slow covalent binding. […]
Ethidium bromide (EB, ≥98.0%), bovine serum albumin (BSA, lyophilized powder, crystallized, ≥98.0%), and natural double-stranded DNA from calf thymus (DNA, lyophilized powder, Na^+ salt in the form of fibers) were purchased from Merck, while anhydrous guanosine 5′-monophosphate disodium salt (Na2[GMP], >98.0%) was purchased from TCI Chemicals. […] Molar concentrations of solutions of EB (CEB), BSA (CBSA), and DNA (CDNA) were determined by absorbance measurements (εEB^480 nm = 5700 M^–1 cm^–1; εBSA^278 nm = 44000 M^–1 cm^–1; εDNA^260 nm = 13200 M^–1 cm^–1 for a concentration expressed in base pairs). […] In EB/DNA exchange experiments, EB was added to DNA until the fluorescence emission at λex = 520 nm/λem = 595 nm (diagnostic wavelengths for the DNA-intercalated EB only) started to reach the plateau (CEB = 5.60 × 10^–5 M, CDNA = 1.15 × 10^–4 M). […]

[2] = biological target: T1, bovine serum albumin (BSA) (Bos taurus, UniProt P02769); assay: BSA fluorescence quenching titration; assay type: binding; details: pH 7.0 buffer, NaCl 0.1 M, NaCac 0.01 M; for Log K (binding constant, compound/BSA): 1:1 model, 25 °C
T1 construct: bovine serum albumin (BSA, lyophilized powder, crystallized, ≥98.0%); purchased Merck
Source text: The interaction of [4]CF3SO3 and [9]CF3SO3 with bovine serum albumin (BSA) as a model protein was also explored. The addition of the metal complex to the protein in pH buffer solution (pH 7.0 buffer; NaCl 0.1 M, NaCac 0.01 M) produced a quenching of the intrinsic fluorescence emission of the latter. A data fit, according to the Stern–Volmer equation,[11] provided quenching constants (KSV) values equal to ca. 3.4 × 10^4 for both systems, indicative that a binding event occurs (Figure S1).[32] […] More precisely, the binding constant (10^6) appears to be high enough to ensure adduct formation but also weak enough to release the complex once the biotarget is reached; this is assumed to be the optimal condition for BSA-driven transport and diffusion of a drug.[34]
Ethidium bromide (EB, ≥98.0%), bovine serum albumin (BSA, lyophilized powder, crystallized, ≥98.0%), and natural double-stranded DNA from calf thymus (DNA, lyophilized powder, Na^+ salt in the form of fibers) were purchased from Merck, while anhydrous guanosine 5′-monophosphate disodium salt (Na2[GMP], >98.0%) was purchased from TCI Chemicals. Prior to use, DNA was sonicated to ca. 500 base pair length (MSE-Sonyprep sonicator, 7 cycles of 10 s sonication + 20 s pause at an amplitude of 14 μm, solution kept in ice bath—the final length was checked by agarose gel electrophoresis tests on the sample using a 100 bp DNA ladder) to produce stock solutions in water (ca. 2 mM). Stock solutions of EB and BSA were prepared by weighing directly in the buffer (NaCl 0.1 M, NaCac 0.01M, pH 7.0—NaCac is sodium cacodylate). […] Molar concentrations of solutions of EB (CEB), BSA (CBSA), and DNA (CDNA) were determined by absorbance measurements (εEB^480 nm = 5700 M^–1 cm^–1; εBSA^278 nm = 44000 M^–1 cm^–1; εDNA^260 nm = 13200 M^–1 cm^–1 for a concentration expressed in base pairs). […] In EB/DNA exchange experiments, EB was added to DNA until the fluorescence emission at λex = 520 nm/λem = 595 nm (diagnostic wavelengths for the DNA-intercalated EB only) started to reach the plateau (CEB = 5.60 × 10^–5 M, CDNA = 1.15 × 10^–4 M). […] The total maximum amount of DMSO was checked (<3%) as well as the metal complex absorbance at the set wavelengths (A < 0.05 to ensure negligible inner filter effects). Note that a blank test was carried out by adding DMSO to the EB/DNA mixture, in order to quantify fluorescence changes due only to dilution/solvent effects. For BSA fluorescence titrations, the working solution of the metal complex (4.42 × 10^–5 M for [4]CF3SO3, 4.59 × 10^–5 M for [9]CF3SO3, both in the buffer) was added to a 3.34 × 10^–7 M BSA solution in the buffer (λex = 280 nm, λem = 345 nm, dilution from stock such that the DMSO content is negligible). […]

[3] = biological target: T2, COX-2 enzyme (Homo sapiens, UniProt P35354); assay: COX-2 enzyme inhibition assay (fluorimetric); assay type: biochemical; details: residual enzyme activity, 25 °C, pH 8, mean ± SD
T2 construct: purchased Cayman Chemical Company
T2 sequence (P35354 18-604): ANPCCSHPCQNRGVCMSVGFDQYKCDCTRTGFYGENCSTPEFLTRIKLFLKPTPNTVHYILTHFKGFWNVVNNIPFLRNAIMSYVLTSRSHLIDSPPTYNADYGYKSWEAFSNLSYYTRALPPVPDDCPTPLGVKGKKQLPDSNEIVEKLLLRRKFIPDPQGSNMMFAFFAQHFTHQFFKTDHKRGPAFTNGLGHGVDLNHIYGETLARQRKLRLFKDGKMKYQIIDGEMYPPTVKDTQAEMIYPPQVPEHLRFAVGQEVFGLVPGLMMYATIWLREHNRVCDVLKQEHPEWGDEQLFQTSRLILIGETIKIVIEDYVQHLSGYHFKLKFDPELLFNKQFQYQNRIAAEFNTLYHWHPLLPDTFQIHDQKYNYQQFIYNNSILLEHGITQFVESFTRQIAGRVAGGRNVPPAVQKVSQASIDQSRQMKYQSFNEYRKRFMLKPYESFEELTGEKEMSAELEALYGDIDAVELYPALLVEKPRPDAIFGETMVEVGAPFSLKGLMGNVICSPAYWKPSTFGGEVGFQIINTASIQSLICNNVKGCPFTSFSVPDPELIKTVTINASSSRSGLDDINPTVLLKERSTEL
Protocol: Next, the possible role of the bioactive fragment in the complexes was studied.
The IC50 value was obtained using GraphPad Prism 7 software. All of the inhibitor assays were performed at least in triplicate.

T1 sequence (P02769 25-607): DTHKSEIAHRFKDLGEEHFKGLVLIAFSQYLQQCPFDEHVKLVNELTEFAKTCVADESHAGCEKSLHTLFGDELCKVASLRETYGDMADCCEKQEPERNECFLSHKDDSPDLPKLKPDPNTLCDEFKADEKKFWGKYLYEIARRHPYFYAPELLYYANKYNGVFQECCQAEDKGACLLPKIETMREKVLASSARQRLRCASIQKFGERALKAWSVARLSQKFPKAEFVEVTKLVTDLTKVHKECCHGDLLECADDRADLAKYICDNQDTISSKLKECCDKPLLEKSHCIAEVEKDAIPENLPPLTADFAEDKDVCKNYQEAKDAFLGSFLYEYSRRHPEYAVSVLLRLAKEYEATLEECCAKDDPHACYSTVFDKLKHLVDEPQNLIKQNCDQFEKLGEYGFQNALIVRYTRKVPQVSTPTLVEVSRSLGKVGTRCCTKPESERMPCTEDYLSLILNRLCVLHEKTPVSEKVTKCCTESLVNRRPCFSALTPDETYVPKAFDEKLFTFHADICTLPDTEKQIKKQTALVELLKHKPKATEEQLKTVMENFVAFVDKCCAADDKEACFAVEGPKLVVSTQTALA

Row | Substance | interaction with natural DNA (EB displacement) [1] | Log K (binding constant, compound/BSA) [2] | Stern–Volmer quenching constant (KSV) [2] | IC50 [3]
1 | [Fe2Cp2(CO)(μ-CO){μ-η^1:η^3-Cγ(3-C6H4OC(=O)C6H4OC(=O)Me)CβHCαNMe(Xyl)}]CF3SO3 [[4]CF3SO3] | interact weakly with natural DNA | 5.9 ± 0.1 | ca. 3.4 × 10^4 | 30 ± 3 µM
2 | [Fe2Cp2(CO)(μ-CO){μ-η^1:η^3-Cγ(3-C6H4NHC(=O)(CH2)3C6H4N(CH2CH2Cl)2)CβHCαNMe2}]CF3SO3 [[9]CF3SO3] | interact weakly with natural DNA | 6.5 ± 0.1 | ca. 3.4 × 10^4 | 
